Several values for one entry are separate records, joined by “and”; a condition that tells them apart may be missing. Equal values may be shown once. Toxic doses and inconclusive results are not listed. How the source made its calls: active means survival T/C of 150% or more; inactive means T/C below 125% in these data.
Test system: CD2F1 mice, L1210 leukemia ip, survival T/C
Assay: NCI In Vivo Anticancer Drug Screen. Data for tumor model L1210 Leukemia (intraperitoneal) in CD2F1 (CDF1) mice
Details: higher = longer survival
How it was run: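 In this screen, transplantable tumors were grown in mice given either the compound or its vehicle. Results were expressed as the treated measurement relative to the control measurement.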

[1] = endpoint: mean survival time, dose: 12.5 mg/kg/injection, schedule: Q01DX009 (ip), vehicle: saline with Tween-80
[2] = endpoint: mean survival time, dose: 25.0 mg/kg/injection, schedule: Q01DX009 (ip), vehicle: saline with Tween-80
[3] = endpoint: mean survival time, dose: 50.0 mg/kg/injection, schedule: Q01DX009 (ip), vehicle: saline with Tween-80
[4] = endpoint: mean survival time, dose: 100.0 mg/kg/injection, schedule: Q01DX001 (ip), vehicle: saline with Tween-80
[5] = endpoint: mean survival time, dose: 200.0 mg/kg/injection, schedule: Q01DX001 (ip), vehicle: saline with Tween-80
[6] = endpoint: mean survival time, dose: 6.25 mg/kg/injection, schedule: Q01DX009 (ip), vehicle: saline with Tween-80
[7] = endpoint: mean survival time, dose: 100.0 mg/kg/injection, schedule: Q04DX003 (ip), vehicle: saline with Tween-80
[8] = endpoint: mean survival time, dose: 200.0 mg/kg/injection, schedule: Q04DX003 (ip), vehicle: saline with Tween-80
[9] = endpoint: mean survival time, dose: 400.0 mg/kg/injection, schedule: Q04DX003 (ip), vehicle: saline with Tween-80
[10] = endpoint: mean survival time, dose: 100.0 mg/kg/injection, schedule: Q01DX009 (ip), vehicle: saline with Tween-80
[11] = endpoint: mean survival time, dose: 200.0 mg/kg/injection, schedule: Q01DX009 (ip), vehicle: saline with Tween-80
[12] = endpoint: mean survival time, dose: 100.0 mg/kg/injection, schedule: Q04DX003 (ip), vehicle: saline sonified
[13] = endpoint: mean survival time, dose: 200.0 mg/kg/injection, schedule: Q04DX003 (ip), vehicle: saline sonified
[14] = endpoint: mean survival time, dose: 100.0 mg/kg/injection, schedule: Q01DX009 (ip), vehicle: saline sonified
[15] = endpoint: mean survival time, dose: 400.0 mg/kg/injection, schedule: Q01DX009 (ip), vehicle: saline with Tween-80

Measured: T/C

COC(=O)c1ccc[n+](CCc2c[nH]c3ccccc23)c1
inactive: [1] 92 % of control | [2] 97 % of control | [3] 96 % of control and 107 % of control | [4] 101 % of control | [5] 96 % of control

O=c1[nH]cnc2c1ncn2C1OC(CO)C(O)C1O.[Ag+] (stereo not given)
inactive: endpoint: mean survival time, dose: 12.5 mg/kg/injection, schedule: Q01DX005 (ip), vehicle: other 92 % of control | endpoint: mean survival time, dose: 25.0 mg/kg/injection, schedule: Q01DX005 (ip), vehicle: other 98 % of control | endpoint: mean survival time, dose: 50.0 mg/kg/injection, schedule: Q01DX005 (ip), vehicle: other 87 % of control

Cc1ccc(C(=O)C[n+]2cccc3ccccc32)c(C)c1
inactive: [6] 101 % of control | [1] 94 % of control | [2] 95 % of control

[CH3][Sn]1([CH3])[O]C2C(CO)OC(n3ccc4c(N)ncnc43)C2[O]1 (stereo not given)
inactive: endpoint: mean survival time, dose: 0.78 mg/kg/injection, schedule: Q01DX005 (ip), vehicle: other 111 % of control | endpoint: mean survival time, dose: 1.56 mg/kg/injection, schedule: Q01DX005 (ip), vehicle: other 107 % of control | endpoint: mean survival time, dose: 3.13 mg/kg/injection, schedule: Q01DX005 (ip), vehicle: other 115 % of control

NC(=O)c1[nH]cnc1/N=N/N(CCO)Cc1ccccc1
inactive: [7] 98 % of control | [8] 95 % of control | [9] 95 % of control

COc1cc(OC)c(NC(=O)Nc2ccccc2C(N)=O)cc1Cl
inactive: [3] 111 % of control | [10] 96 % of control | [11] 100 % of control

CCOC(=O)/C(=C/C(C#N)=C/N(C)C)CC
inactive: [12] 93 % of control | [13] 108 % of control

CCOC(=O)C12CCCCC1=CC1(CC2)SCCS1 (stereo not given)
inactive: endpoint: mean survival time, dose: 100.0 mg/kg/injection, schedule: Q04DX003 (ip), vehicle: acetone 93 % of control | endpoint: mean survival time, dose: 200.0 mg/kg/injection, schedule: Q04DX003 (ip), vehicle: acetone 91 % of control | endpoint: mean survival time, dose: 400.0 mg/kg/injection, schedule: Q04DX003 (ip), vehicle: acetone 86 % of control

Cc1ccc2c(c1)n([O-])c1cc(Cl)ccc1[n+]2=O
inactive: endpoint: median survival time, dose: 12.5 mg/kg/injection, schedule: Q01DX009 (ip), vehicle: saline with Tween-80 101 % of control and 111 % of control | endpoint: median survival time, dose: 25.0 mg/kg/injection, schedule: Q01DX009 (ip), vehicle: saline with Tween-80 120 % of control | endpoint: median survival time, dose: 30.0 mg/kg/injection, schedule: Q01DX009 (ip), vehicle: saline with Tween-80 108 % of control | endpoint: median survival time, dose: 50.0 mg/kg/injection, schedule: Q01DX009 (ip), vehicle: saline with Tween-80 114 % of control and 112 % of control | endpoint: median survival time, dose: 60.0 mg/kg/injection, schedule: Q01DX009 (ip), vehicle: saline with Tween-80 117 % of control | endpoint: median survival time, dose: 100.0 mg/kg/injection, schedule: Q01DX009 (ip), vehicle: saline with Tween-80 114 % of control and 122 % of control | endpoint: median survival time, dose: 167.0 mg/kg/injection, schedule: Q01DX009 (ip), vehicle: saline with Tween-80 123 % of control | endpoint: median survival time, dose: 200.0 mg/kg/injection, schedule: Q01DX009 (ip), vehicle: saline with Tween-80 124 % of control and 97 % of control | endpoint: median survival time, dose: 278.0 mg/kg/injection, schedule: Q01DX009 (ip), vehicle: saline with Tween-80 121 % of control

CCC1(C)C(C#N)C(=O)NC(=O)C1C#N (stereo not given)
inactive: endpoint: mean survival time, dose: 50.0 mg/kg/injection, schedule: Q01DX009 (ip), vehicle: saline sonified 96 % of control | [14] 90 % of control | [7] 100 % of control | [8] 100 % of control

CCCCCCCCCCCCCCCCOc1ccc(NS(=O)(=O)c2ccc(NC(C)=O)cc2)cc1
inactive: [4] 96 % of control | endpoint: mean survival time, dose: 100.0 mg/kg/injection, schedule: Q01DX009 (ip), vehicle: Klucel (hydroxypropylcellulose) (HPC) 109 % of control | [5] 91 % of control | endpoint: mean survival time, dose: 200.0 mg/kg/injection, schedule: Q01DX009 (ip), vehicle: Klucel (hydroxypropylcellulose) (HPC) 103 % of control | endpoint: mean survival time, dose: 400.0 mg/kg/injection, schedule: Q01DX001 (ip), vehicle: saline with Tween-80 93 % of control | endpoint: mean survival time, dose: 400.0 mg/kg/injection, schedule: Q01DX009 (ip), vehicle: Klucel (hydroxypropylcellulose) (HPC) 98 % of control

O=S(=O)(O)C1CCC(O)C2[N-]CCCC21.O=S(=O)(O)C1CCC(O)C2[N-]CCCC21.[Zn+2] (stereo not given)
inactive: [10] 95 % of control | [7] 96 % of control | [8] 93 % of control | [15] 86 % of control | [9] 96 % of control

COc1cc([N+](=O)[O-])ccc1NC(=O)Nc1ccc(Cl)cc1
inactive: [10] 89 % of control | [7] 91 % of control | [11] 87 % of control | [9] 107 % of control

c1ccc(N=C(C(=Nc2ccccc2)c2ccccn2)c2cccnc2)cc1
inactive: endpoint: mean survival time, dose: 100.0 mg/kg/injection, schedule: Q01DX001 (ip), vehicle: Klucel (hydroxypropylcellulose) (HPC) 93 % of control | endpoint: mean survival time, dose: 200.0 mg/kg/injection, schedule: Q01DX001 (ip), vehicle: Klucel (hydroxypropylcellulose) (HPC) 103 % of control | endpoint: mean survival time, dose: 400.0 mg/kg/injection, schedule: Q01DX001 (ip), vehicle: Klucel (hydroxypropylcellulose) (HPC) 100 % of control

COC1CCC2CCN(C)C(Cc3ccc(Oc4ccc(CC5C6CC(OC)CCC6CCN5C)cc4)cc3)C2C1 (stereo not given)
inactive: endpoint: mean survival time, dose: 1.56 mg/kg/injection, schedule: Q04DX002 (ip), vehicle: saline with Tween-80 90 % of control | endpoint: mean survival time, dose: 3.13 mg/kg/injection, schedule: Q04DX002 (ip), vehicle: saline with Tween-80 94 % of control

O=S(=O)(Nc1c(Cl)c(Cl)c(NS(=O)(=O)c2ccccc2)c(Cl)c1Cl)c1ccccc1
inactive: endpoint: mean survival time, dose: 100.0 mg/kg/injection, schedule: Q04DX003 (ip), vehicle: Klucel (hydroxypropylcellulose) (HPC) 98 % of control | endpoint: mean survival time, dose: 200.0 mg/kg/injection, schedule: Q04DX003 (ip), vehicle: Klucel (hydroxypropylcellulose) (HPC) 91 % of control | endpoint: mean survival time, dose: 400.0 mg/kg/injection, schedule: Q04DX003 (ip), vehicle: Klucel (hydroxypropylcellulose) (HPC) 103 % of control

CCCCCCCCCCSC(=N)N
inactive: endpoint: mean survival time, dose: 6.25 mg/kg/injection, schedule: Q01DX001 (ip), vehicle: Klucel (hydroxypropylcellulose) (HPC) 102 % of control | endpoint: mean survival time, dose: 12.5 mg/kg/injection, schedule: Q01DX001 (ip), vehicle: Klucel (hydroxypropylcellulose) (HPC) 112 % of control | endpoint: mean survival time, dose: 25.0 mg/kg/injection, schedule: Q01DX001 (ip), vehicle: Klucel (hydroxypropylcellulose) (HPC) 96 % of control

O=C(CO)c1ccc([N+](=O)[O-])cc1
inactive: endpoint: mean survival time, dose: 3.12 mg/kg/injection, schedule: Q01DX009 (ip), vehicle: saline with Tween-80 98 % of control and 101 % of control | [6] 96 % of control and 101 % of control | [1] 98 % of control and 101 % of control | [2] 95 % of control and 96 % of control | [3] 101 % of control | [10] 95 % of control and 101 % of control

CC(C)CC(=O)Nc1ccccc1
inactive: [14] 101 % of control | endpoint: mean survival time, dose: 200.0 mg/kg/injection, schedule: Q01DX009 (ip), vehicle: saline sonified 102 % of control | endpoint: mean survival time, dose: 400.0 mg/kg/injection, schedule: Q01DX009 (ip), vehicle: saline sonified 93 % of control

COC(OC)c1[nH]c(=S)[nH]c(=O)c1Cc1cccc(Cl)c1
inactive: [12] 95 % of control | [13] 101 % of control | endpoint: mean survival time, dose: 400.0 mg/kg/injection, schedule: Q04DX003 (ip), vehicle: saline sonified 108 % of control

CC1(CC#N)CO1 (stereo not given)
inactive: [7] 96 % of control | [8] 96 % of control | [9] 96 % of control

O=CNCCO
inactive: [10] 98 % of control | endpoint: mean survival time, dose: 100.0 mg/kg/injection, schedule: Q04DX003 (ip), vehicle: saline 113 % of control | [11] 94 % of control | endpoint: mean survival time, dose: 200.0 mg/kg/injection, schedule: Q04DX003 (ip), vehicle: saline 108 % of control | [15] 93 % of control | endpoint: mean survival time, dose: 400.0 mg/kg/injection, schedule: Q04DX003 (ip), vehicle: saline 110 % of control

Source: PubChem BioAssay AID256 (DTP/NCI, 2004)
